Test results published in ChEMBL document CHEMBL3885861, “Open TG-GATES”.

Species: Rattus norvegicus
Assay: Open TG-GATES - Regimen: Single
Format: toxicity, organism-based, Sprague-Dawley
Parameters: regimen Single, gender Male, age 6 weeks
Conditions: in vivo, iv, 0 mg/kg, route intravenous injection, dose level Control; for Bas / Eos / Hb / Ht / Lym / MCH / MCHC / MCV / Mono / Neu / Plat / RBC / Ret: tissue Blood; for KIDNEY_L / KIDNEY_R / KIDNEY_TOTAL: tissue Kidney; for ALT / AST / CRE / DBIL / GLC / K / LDH / Na / PL / RALB / TBIL / TC / TP / gamma-GTP: tissue Plasma

**Q.** With `CC(C)C[C@H](NC(=O)[C@H](Cc1ccccc1)NC(=O)c1cnccn1)B(O)O` [BORTEZOMIB] as the molecule, how does the TERMINAL_BW (3 h) read?
**A.** 223 g

**Q.** What about the Bas (3 h) of the same molecule?
**A.** 0%

**Q.** What about the Eos (3 h) of the same molecule?
**A.** 0.8%

**Q.** And the Hb (3 h)?
**A.** 13.9 g/dL

**Q.** What about the Ht (3 h) of the same molecule?
**A.** 39.5%

**Q.** And the Lym (3 h)?
**A.** 81.4%

**Q.** And the MCH (3 h)?
**A.** 22.9 pg

**Q.** What about the MCHC (3 h) of the same molecule?
**A.** 35.2%

**Q.** What about the MCV (3 h) of the same molecule?
**A.** 65.1 fL

**Q.** What about the Mono (3 h) of the same molecule?
**A.** 2.6%

**Q.** And the Neu (3 h)?
**A.** 14.8%

**Q.** What about the Plat (3 h) of the same molecule?
**A.** 124.1 x10_4/uL

**Q.** What about the RBC (3 h) of the same molecule?
**A.** 607 x10_4/ul

**Q.** What about the Ret (3 h) of the same molecule?
**A.** 9.3%

**Q.** And the KIDNEY_L (3 h)?
**A.** 0.9 g

**Q.** What about the KIDNEY_R (3 h) of the same molecule?
**A.** 0.9 g

**Q.** And the KIDNEY_TOTAL (3 h)?
**A.** 1.9 g

**Q.** And the ALT (3 h)?
**A.** 38.6 IU/L

**Q.** What about the AST (3 h) of the same molecule?
**A.** 70.4 IU/L

**Q.** And the CRE (3 h)?
**A.** 0.2 mg/dL

**Q.** What about the DBIL (3 h) of the same molecule?
**A.** 0 mg/dL

**Q.** And the GLC (3 h)?
**A.** 191.2 mg/dL

**Q.** What about the K (3 h) of the same molecule?
**A.** 3.9 meq/L

**Q.** And the LDH (3 h)?
**A.** 175.8 IU/L

**Q.** What about the Na (3 h) of the same molecule?
**A.** 142.3 meq/L

**Q.** What about the PL (3 h) of the same molecule?
**A.** 138.6 mg/dL

**Q.** What about the RALB (3 h) of the same molecule?
**A.** 4.1 g/dL

**Q.** What about the TBIL (3 h) of the same molecule?
**A.** 0.006 mg/dL

**Q.** And the TC (3 h)?
**A.** 74.6 mg/dL

**Q.** And the TP (3 h)?
**A.** 5.6 g/dL

**Q.** And the gamma-GTP (3 h)?
**A.** 0.7 IU/L

**Q.** And the TERMINAL_BW (6 h)?
**A.** 220.7 g

**Q.** What about the Bas (6 h) of the same molecule?
**A.** 0%

**Q.** And the Eos (6 h)?
**A.** 0.4%

**Q.** What about the Hb (6 h) of the same molecule?
**A.** 13.7 g/dL

**Q.** What about the Ht (6 h) of the same molecule?
**A.** 38.8%

**Q.** And the Lym (6 h)?
**A.** 77.6%

**Q.** And the MCH (6 h)?
**A.** 22.1 pg

**Q.** What about the MCHC (6 h) of the same molecule?
**A.** 35.4%

**Q.** And the MCV (6 h)?
**A.** 62.5 fL

**Q.** And the Mono (6 h)?
**A.** 2.8%

**Q.** What about the Neu (6 h) of the same molecule?
**A.** 18.4%

**Q.** What about the Plat (6 h) of the same molecule?
**A.** 117.1 x10_4/uL

**Q.** And the RBC (6 h)?
**A.** 622.4 x10_4/ul

**Q.** And the Ret (6 h)?
**A.** 8.7%

**Q.** What about the KIDNEY_L (6 h) of the same molecule?
**A.** 1 g

**Q.** And the KIDNEY_R (6 h)?
**A.** 1 g

**Q.** And the KIDNEY_TOTAL (6 h)?
**A.** 2 g

**Q.** What about the ALT (6 h) of the same molecule?
**A.** 37 IU/L

**Q.** And the AST (6 h)?
**A.** 78.8 IU/L

**Q.** And the CRE (6 h)?
**A.** 0.2 mg/dL

**Q.** What about the DBIL (6 h) of the same molecule?
**A.** 0 mg/dL

**Q.** What about the GLC (6 h) of the same molecule?
**A.** 176.6 mg/dL

**Q.** What about the K (6 h) of the same molecule?
**A.** 4.4 meq/L

**Q.** And the LDH (6 h)?
**A.** 219.2 IU/L

**Q.** What about the Na (6 h) of the same molecule?
**A.** 141.6 meq/L

**Q.** And the PL (6 h)?
**A.** 141.4 mg/dL

**Q.** And the RALB (6 h)?
**A.** 4 g/dL

**Q.** What about the TBIL (6 h) of the same molecule?
**A.** 0.014 mg/dL

**Q.** What about the TC (6 h) of the same molecule?
**A.** 75.4 mg/dL

**Q.** And the TP (6 h)?
**A.** 5.6 g/dL

**Q.** What about the gamma-GTP (6 h) of the same molecule?
**A.** 0.8 IU/L

**Q.** And the TERMINAL_BW (9 h)?
**A.** 222.6 g

**Q.** What about the Bas (9 h) of the same molecule?
**A.** 0%

**Q.** What about the Eos (9 h) of the same molecule?
**A.** 1%

**Q.** What about the Hb (9 h) of the same molecule?
**A.** 14 g/dL

**Q.** What about the Ht (9 h) of the same molecule?
**A.** 40.5%

**Q.** And the Lym (9 h)?
**A.** 71%

**Q.** And the MCH (9 h)?
**A.** 22.2 pg

**Q.** And the MCHC (9 h)?
**A.** 34.5%

**Q.** What about the MCV (9 h) of the same molecule?
**A.** 64.3 fL

**Q.** What about the Mono (9 h) of the same molecule?
**A.** 3.4%

**Q.** What about the Neu (9 h) of the same molecule?
**A.** 24.4%

**Q.** And the Plat (9 h)?
**A.** 108.5 x10_4/uL

**Q.** What about the RBC (9 h) of the same molecule?
**A.** 630.2 x10_4/ul

**Q.** And the Ret (9 h)?
**A.** 9.3%

**Q.** What about the KIDNEY_L (9 h) of the same molecule?
**A.** 1 g

**Q.** What about the KIDNEY_R (9 h) of the same molecule?
**A.** 1 g

**Q.** And the KIDNEY_TOTAL (9 h)?
**A.** 1.9 g

**Q.** What about the ALT (9 h) of the same molecule?
**A.** 39.8 IU/L

**Q.** What about the AST (9 h) of the same molecule?
**A.** 78 IU/L

**Q.** And the CRE (9 h)?
**A.** 0.2 mg/dL

**Q.** And the DBIL (9 h)?
**A.** 0 mg/dL

**Q.** What about the GLC (9 h) of the same molecule?
**A.** 179.4 mg/dL

**Q.** What about the K (9 h) of the same molecule?
**A.** 3.9 meq/L

**Q.** And the LDH (9 h)?
**A.** 187.2 IU/L

**Q.** And the Na (9 h)?
**A.** 141.5 meq/L

**Q.** And the PL (9 h)?
**A.** 139 mg/dL

**Q.** And the RALB (9 h)?
**A.** 3.9 g/dL

**Q.** What about the TBIL (9 h) of the same molecule?
**A.** 0.022 mg/dL

**Q.** What about the TC (9 h) of the same molecule?
**A.** 78.6 mg/dL

**Q.** And the TP (9 h)?
**A.** 5.5 g/dL

**Q.** What about the gamma-GTP (9 h) of the same molecule?
**A.** 0.8 IU/L

**Q.** What about the TERMINAL_BW (24 h) of the same molecule?
**A.** 236.7 g

**Q.** And the Bas (24 h)?
**A.** 0%

**Q.** And the Eos (24 h)?
**A.** 0.6%

**Q.** What about the Hb (24 h) of the same molecule?
**A.** 13.8 g/dL

**Q.** What about the Ht (24 h) of the same molecule?
**A.** 38.2%

**Q.** And the Lym (24 h)?
**A.** 81.2%

**Q.** And the MCH (24 h)?
**A.** 22.9 pg

**Q.** What about the MCHC (24 h) of the same molecule?
**A.** 36.1%

**Q.** What about the MCV (24 h) of the same molecule?
**A.** 63.5 fL

**Q.** And the Mono (24 h)?
**A.** 3%

**Q.** What about the Neu (24 h) of the same molecule?
**A.** 14.6%

**Q.** And the Plat (24 h)?
**A.** 113.7 x10_4/uL

**Q.** And the RBC (24 h)?
**A.** 603 x10_4/ul

**Q.** What about the Ret (24 h) of the same molecule?
**A.** 8%

**Q.** And the KIDNEY_L (24 h)?
**A.** 1.1 g

**Q.** And the KIDNEY_R (24 h)?
**A.** 1 g

**Q.** What about the KIDNEY_TOTAL (24 h) of the same molecule?
**A.** 2.1 g

**Q.** What about the ALT (24 h) of the same molecule?
**A.** 42 IU/L

**Q.** What about the AST (24 h) of the same molecule?
**A.** 74.4 IU/L

**Q.** What about the CRE (24 h) of the same molecule?
**A.** 0.2 mg/dL

**Q.** And the DBIL (24 h)?
**A.** 0 mg/dL

**Q.** What about the GLC (24 h) of the same molecule?
**A.** 182.4 mg/dL

**Q.** And the K (24 h)?
**A.** 4.2 meq/L

**Q.** What about the LDH (24 h) of the same molecule?
**A.** 190.4 IU/L

**Q.** What about the Na (24 h) of the same molecule?
**A.** 140.8 meq/L

**Q.** And the PL (24 h)?
**A.** 146.4 mg/dL

**Q.** And the RALB (24 h)?
**A.** 4 g/dL

**Q.** And the TBIL (24 h)?
**A.** 0.002 mg/dL

**Q.** What about the TC (24 h) of the same molecule?
**A.** 74.2 mg/dL

**Q.** And the TP (24 h)?
**A.** 5.7 g/dL
